Measurements taken from patent US12459951B2, “Compounds that interact with RAS superfamily proteins for treatment of cancers, inflammatory diseases, rasopathies, and fibrotic disease” (SHY Therapeutics, LLC, priority 2022, dated 2025).
Where two headings read alike, the source gives them in different places.

Experiments:
[1] = system: MiaPaca-2 (expressing KRAS G12C mutant); assay: Proliferation Assay (Cell Viability Assay); format: cell-based; settings: Homo sapiens, MIA PaCa-2
Method in brief: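 After 2–4 days' exposure at 37 °C, 5% CO2 to a single 10 μM final concentration or a dilution series (IC50), percent proliferation inhibition was derived from CellTiter 96 Aqueous One viability readings. The medium contained 0.3% DMSO and 10% FBS. KRAS G12C MiaPaca-2 cells were plated at 2000–5000/well the day before.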

KRas G12C mutant = assay: Ras GTP Binding Domain Inhibition Assay (Ras Superfamily Assay); settings: 20 μM compound
Method in brief: (§1)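 His-tagged GTPases immobilised on nickel-coated plates, pre-incubated with compound (20 μM single point, or serial dilution for IC50) 3 h at room temperature, with or without 10-30 μg/mL Sos (residues 556-1049) in the final hour. Bound Cy3- or Cy5-GTP (100 nM, 45 min) measured by fluorescence after washing.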

KRas G12D mutant = assay: as above; settings: for KRas G12D mutant + SOS: % inh.: with SOS; for KRas G12D mutant: % inh.: without SOS
Method in brief: as §1

KRas wild type = assay: as above; settings: for KRas wild type + SOS: % inh.: with SOS; for KRas wild type: % inh.: without SOS
Method in brief: as §1

[2] = read-out: Proliferation in MiaPaca-2: IC50

Structure (SMILES) | IC50 [1, 2] [nM] | KRas G12C mutant + SOS: % inh. (KRas G12C mutant; with SOS) | KRas G12C mutant: % inh. (KRas G12C mutant; without SOS) | KRas G12D mutant + SOS: % inh. (KRas G12D mutant; 20 μM compound) | KRas G12D mutant: % inh. (KRas G12D mutant; 20 μM compound) | KRas wild type + SOS: % inh. (KRas wild type; 20 μM compound) | KRas wild type: % inh. (KRas wild type; 20 μM compound) | KRas G12D mutant + SOS: % inh. (KRas G12D mutant; at 20 μM) | KRas G12D mutant: % inh. (KRas G12D mutant; at 20 μM) | KRas wild type + SOS: % inh. (KRas wild type; at 20 μM) | KRas wild type: % inh. (KRas wild type; at 20 μM) | IC50 ([1]; Proliferation assay, MiaPaca-2, read-out: MiaPaca-2 IC50 (nM) Pancreatic) [nM]
CO[C@H]1CC[C@@H](Nc2nc(-c3ccccn3)nn3cc(-c4ccn(C(C)C)n4)c(-c4ccccc4)c23)C1 (racemic) [Compound 24, rac 6-(1-Isopropyl-1H-pyrazol-3-yl)-N-((1R,3S)-3-methoxycyclopentyl)-5-phenyl-2-(pyridin-2-yl)pyrrolo[2,1-f][1,2,4]triazin-4-amine] | > 1000 | 0 (0 = 0% inhibition) | 0 (0 = 0% inhibition) | 0 (0 = 0% inhibition) | 0 (0 = 0% inhibition) | 0 (0 = 0% inhibition) | 0 (0 = 0% inhibition) | – | – | – | – | –
Cc1c(-c2ccn(C)n2)cn2nc(-c3nccn3C)nc(Nc3cc(C(F)(F)F)[nH]n3)c12 [Compound 259, 5-Methyl-2-(1-methyl-1H-imidazol-2-yl)-6-(1-methyl-1H-pyrazol-3-yl)-N-(5-(trifluoromethyl)-1H-pyrazol-3-yl)pyrrolo[2,1-f][1,2,4]triazin-4-amine] | > 1000 | – | – | – | – | – | – | D (D = 76-100% inhibition) | C (C = 50-75% inhibition) | D (D = 76-100% inhibition) | C (C = 50-75% inhibition) | –
Cc1c(-c2ccn(C)n2)cn2nc(-c3nccn3C)nc(-n3[nH]c(N)cc3=O)c12 [Compound 261, 5-Amino-2-(5-methyl-2-(1-methyl-1H-imidazol-2-yl)-6-(1-methyl-1H-pyrazol-3-yl)pyrrolo[2,1-f][1,2,4]triazin-4-yl)-1,2-dihydro-3H-pyrazol-3-one] | > 1000 | – | – | – | – | – | – | C (C = 50-75% inhibition) | D (D = 76-100% inhibition) | C (C = 50-75% inhibition) | C (C = 50-75% inhibition) | –
Cc1c(-c2ccn(C)n2)cn2nc(-c3nccn3C)nc(Oc3cc(N)[nH]n3)c12 [Compound 262, 3-((5-Methyl-2-(1-methyl-1H-imidazol-2-yl)-6-(1-methyl-1H-pyrazol-3-yl)pyrrolo[2,1-f][1,2,4]triazin-4-yl)oxy)-1H-pyrazol-5-amine] | > 1000 | – | – | – | – | – | – | D (D = 76-100% inhibition) | D (D = 76-100% inhibition) | C (C = 50-75% inhibition) | B (B = 26-49% inhibition) | –
Cc1[nH]nc(Nc2nc(-c3nccn3C)nn3cc(-c4ccn(C)n4)c(C)c23)c1C [Compound 267, N-(4,5-Dimethyl-1H-pyrazol-3-yl)-5-methyl-2-(1-methyl-1H-imidazol-2-yl)-6-(1-methyl-1H-pyrazol-3-yl)pyrrolo[2,1-f][1,2,4]triazin-4-amine] | < 150 | – | – | – | – | – | – | D (D = 76-100% inhibition) | D (D = 76-100% inhibition) | D (D = 76-100% inhibition) | D (D = 76-100% inhibition) | 1 to 10
Cc1c(-c2ccn(C)n2)cn2nc(-c3nccn3C)nc(Nc3cc(C(C)C)[nH]n3)c12 [Compound 268, N-(5-Isopropyl-1H-pyrazol-3-yl)-5-methyl-2-(1-methyl-1H-imidazol-2-yl)-6-(1-methyl-1H-pyrazol-3-yl)pyrrolo[2,1-f][1,2,4]triazin-4-amine] | < 150 | – | – | – | – | – | – | D (D = 76-100% inhibition) | C (C = 50-75% inhibition) | D (D = 76-100% inhibition) | C (C = 50-75% inhibition) | –
COc1cccc(-c2cn3nc(-c4nccn4C)nc(N[C@H]4C[C@@H](OC)C4)c3c2-c2ccccc2)c1C [Compound 269, 6-(3-Methoxy-2-methylphenyl)-N-((1s,3s)-3-methoxycyclobutyl)-2-(1-methyl-1H-imidazol-2-yl)-5-phenylpyrrolo[2,1-f][1,2,4]triazin-4-amine] | 510 to 1000 | – | – | – | – | – | – | B (B = 26-49% inhibition) | B (B = 26-49% inhibition) | A (A = 1-25% inhibition) | C (C = 50-75% inhibition) | –
COc1ccc(F)c(-c2cn3nc(-c4nccn4C)nc(N[C@H]4C[C@H](OC)C4)c3c2-c2ccccc2)c1F [Compound 273, 6-(2,6-Difluoro-3-methoxyphenyl)-N-((1r,3r)-3-methoxycyclobutyl)-2-(1-methyl-1H-imidazol-2-yl)-5-phenylpyrrolo[2,1-f][1,2,4]triazin-4-amine] | > 1000 | – | – | – | – | – | – | A (A = 1-25% inhibition) | B (B = 26-49% inhibition) | A (A = 1-25% inhibition) | 0 (0 = 0% inhibition) | –
COc1cccc(-c2cn3nc(-c4nccn4C)nc(N[C@H]4C[C@H](OC)C4)c3c2-c2ccccn2)c1C [Compound 274, 6-(3-Methoxy-2-methylphenyl)-N-((1r,3r)-3-methoxycyclobutyl)-2-(1-methyl-1H-imidazol-2-yl)-5-(pyridin-2-yl)pyrrolo[2,1-f][1,2,4]triazin-4-amine] | 150 to 500 | – | – | – | – | – | – | A (A = 1-25% inhibition) | B (B = 26-49% inhibition) | 0 (0 = 0% inhibition) | 0 (0 = 0% inhibition) | –
CO[C@H]1C[C@H](Nc2nc(-c3nccn3C)nn3cc(-c4ccn(C)n4)c(C4CC4)c23)C1 [Compound 275, 5-Cyclopropyl-N-((1r,3r)-3-methoxycyclobutyl)-2-(1-methyl-1H-imidazol-2-yl)-6-(1-methyl-1H-pyrazol-3-yl)pyrrolo[2,1-f][1,2,4]triazin-4-amine] | > 1000 | – | – | – | – | – | – | A (A = 1-25% inhibition) | A (A = 1-25% inhibition) | 0 (0 = 0% inhibition) | A (A = 1-25% inhibition) | –
COc1ccnc(Nc2nc(-c3nccn3C)nn3cc(-c4ccn(C)n4)c(C4CC4)c23)c1 [Compound 276, 5-Cyclopropyl-N-(4-methoxypyridin-2-yl)-2-(1-methyl-1H-imidazol-2-yl)-6-(1-methyl-1H-pyrazol-3-yl)pyrrolo[2,1-f][1,2,4]triazin-4-amine] | 150 to 500 | – | – | – | – | – | – | D (D = 76-100% inhibition) | D (D = 76-100% inhibition) | D (D = 76-100% inhibition) | D (D = 76-100% inhibition) | –

The next lines start with the values.

IC50 [1, 2] [nM] | KRas G12C mutant + SOS: % inh. (KRas G12C mutant; with SOS) | KRas G12C mutant: % inh. (KRas G12C mutant; without SOS) | KRas G12D mutant + SOS: % inh. (KRas G12D mutant; 20 μM compound) | KRas G12D mutant: % inh. (KRas G12D mutant; 20 μM compound) | KRas wild type + SOS: % inh. (KRas wild type; 20 μM compound) | KRas wild type: % inh. (KRas wild type; 20 μM compound) | KRas G12D mutant + SOS: % inh. (KRas G12D mutant; at 20 μM) | KRas G12D mutant: % inh. (KRas G12D mutant; at 20 μM) | KRas wild type + SOS: % inh. (KRas wild type; at 20 μM) | KRas wild type: % inh. (KRas wild type; at 20 μM) | IC50 ([1]; Proliferation assay, MiaPaca-2, read-out: MiaPaca-2 IC50 (nM) Pancreatic) [nM] | Structure (SMILES)
> 1000 | – | – | – | – | – | – | C (C = 50-75% inhibition) | C (C = 50-75% inhibition) | D (D = 76-100% inhibition) | D (D = 76-100% inhibition) | – | CCOc1cc(Nc2nc(-c3nccn3C)nn3cc(-c4ccn(C)n4)c(C)c23)n[nH]1 [Compound 260, N-(5-Ethoxy-1H-pyrazol-3-yl)-5-methyl-2-(1-methyl-1H-imidazol-2-yl)-6-(1-methyl-1H-pyrazol-3-yl)pyrrolo[2,1-f][1,2,4]triazin-4-amine]
< 150 | – | – | – | – | – | – | D (D = 76-100% inhibition) | D (D = 76-100% inhibition) | D (D = 76-100% inhibition) | C (C = 50-75% inhibition) | – | Cc1c(-c2ccn(C)n2)cn2nc(-c3nccn3C)nc(Nc3cc(-c4ccccc4)[nH]n3)c12 [Compound 263, 5-Methyl-2-(1-methyl-1H-imidazol-2-yl)-6-(1-methyl-1H-pyrazol-3-yl)-N-(5-phenyl-1H-pyrazol-3-yl)pyrrolo[2,1-f][1,2,4]triazin-4-amine]
150 to 500 | – | – | – | – | – | – | D (D = 76-100% inhibition) | C (C = 50-75% inhibition) | D (D = 76-100% inhibition) | C (C = 50-75% inhibition) | – | Cc1c(-c2ccn(C)n2)cn2nc(-c3nccn3C)nc(Nc3cc(-c4cccnc4)[nH]n3)c12 [Compound 264, 5-Methyl-2-(1-methyl-1H-imidazol-2-yl)-6-(1-methyl-1H-pyrazol-3-yl)-N-(5-(pyridin-3-yl)-1H-pyrazol-3-yl)pyrrolo[2,1-f][1,2,4]triazin-4-amine]
< 150 | – | – | – | – | – | – | D (D = 76-100% inhibition) | C (C = 50-75% inhibition) | D (D = 76-100% inhibition) | – | – | Cc1c(-c2ccn(C)n2)cn2nc(-c3nccn3C)nc(Nc3cc(-c4ccccn4)[nH]n3)c12 [Compound 265, 5-Methyl-2-(1-methyl-1H-imidazol-2-yl)-6-(1-methyl-1H-pyrazol-3-yl)-N-(5-(pyridin-2-yl)-1H-pyrazol-3-yl)pyrrolo[2,1-f][1,2,4]triazin-4-amine]
< 150 | – | – | – | – | – | – | D (D = 76-100% inhibition) | D (D = 76-100% inhibition) | C (C = 50-75% inhibition) | D (D = 76-100% inhibition) | – | Cc1c(-c2ccn(C)n2)cn2nc(-c3nccn3C)nc(Nc3cc(-c4ccncc4)[nH]n3)c12 [Compound 266, 5-Methyl-2-(1-methyl-1H-imidazol-2-yl)-6-(1-methyl-1H-pyrazol-3-yl)-N-(5-(pyridin-4-yl)-1H-pyrazol-3-yl)pyrrolo[2,1-f][1,2,4]triazin-4-amine]
